Data reported in KR20170021349A, “다양한 질병의 치료를 위한 jnk 신호 전달 경로의 세포 투과성 펩타이드 억제자의 새로운 용도” (자이겐 인플라메이션 리미티드, priority 2014, dated 2017).
Where “and” joins values, the source holds several entries; their conditions need not be identical. Equal values may be shown once. Entries after “also recorded” stand apart in the source; their conditions may differ.

Assays:
[1] = system: endogenous JNK in HepG2 cells; assay: AlphaScreen kinase assay of endogenous IL-1-induced JNK activity; format: cell-based; conditions: IL-1-dependent JNK activity, Fig. 3d
[2] = system: Hep G2 tumours in SWISS nude mice; assay: Orthotopic Hep G2 human liver carcinoma, dose/response; format: in vivo, mouse
Wistar rats [3] = assay: Puromycin aminonucleoside (PAN)-induced nephropathy, 56 days; format: in vivo, rat
[4] = Ocular pharmacokinetics after single and repeated subconjunctival administration; format: in vivo, rabbit
rat pancreatic islets = assay: Rat islets, 4 h hypoxia; format: cell-based; conditions: 100 μM
[5] = system: primary mouse cortical neurons (WT); assay: Aβ42-induced stress/apoptosis in WT cortical neurons; format: cell-based
murine macrophages = assay: LPS-induced cytokine release in primary cells; format: cell-based, mouse; conditions: Fig. 28 A-C, non-toxic concentrations
[6] = system: female Sprague-Dawley rats; assay: CYP-induced acute cystitis, intravenous treatment, visceral pain; format: in vivo, rat; conditions: 2 mg/kg i.v.
[7] = system: primary cortical neurons of PKR-/- mice; assay: Aβ42-induced stress/apoptosis in PKR-/- cortical neurons; format: cell-based, mouse
[8] = system: female Sprague-Dawley rats; assay: Cystometry in conscious rats with CYP-induced cystitis; format: in vivo, rat; conditions: 2 mg/kg i.v.; 30-60 min post-dose; P<0.01
TC-3 cells = assay: IL-1-induced pancreatic beta-cell apoptosis; format: cell-based; conditions: 1 μM single addition, 15 days IL-1
Brown Norway rats [9] = assay: STZ diabetic retinopathy, repeated subconjunctival administration; format: in vivo, rat
Brown Norway rats [10] = assay: Argon laser-induced choroidal neovascularization (ChNV), intravitreal; format: in vivo, rat
[11] = system: recombinant JNK1, JNK2, JNK3; assay: Solid-phase kinase assay: JNK-mediated phosphorylation of c-Jun, ATF2, Elk1; format: biochemical; conditions: GST-Jun (aa 1-73), 0-250 μM
Wistar rats [12] = assay: Renal ischemia/reperfusion, 40 min clamping; format: in vivo, rat; conditions: 2 mg/kg i.v. 1 h after clamping; 24 h
human islets = assay: Human islets, 24 h hypoxia; format: cell-based; conditions: 100 μM
[13] = system: HCT 116 tumours in SCID mice; assay: Orthotopic HCT 116 human colon tumour; format: in vivo, mouse
[14] = system: Sprague-Dawley albino rats; assay: Light-induced photoreceptor damage (AMD model), ERG and ONL thickness; format: in vivo, rat
[15] = Ocular MTD study, subconjunctival; format: in vivo, rabbit
hAPP Tg mice = assay: hAPP transgenic mouse model of Alzheimer's disease; format: in vivo
[16] = 10 μM pre-treatment, 2 μM Aβ42 5 h (Example 49)
[17] = peptide pre-treatment 1 h (XG-102 10 μM), 2 μM Aβ42
[18] = dual PKR and JNK inhibition, 10 μM

## NH2-DQSRPVQPFLNLTTPRKPRPPRRRQRRKKRG-COOH (H-DQSRPVQPFLNLTTPRKPRPPRRRQRRKKRG-OH; also: D-amino acids (positions not given here)) [XG-102]
[1]
  inhibition of JNK activity compared with L-JNKI: 보다 효과적으로 JNK 활성을 억제한다
[2]; 0.1 mg/kg
  T/C: 123%
[2]; 0.1 mg/kg, 2 mice
  tumour mass in liver, per mouse sacrificed at D171 (microscopy): 간에 종양 (1.3cm); also recorded: 검출된 종양 없음
[2]; 0.1 mg/kg/inj i.v. Q4Dx4, vehicle 86
  mean survival time (as headed): 105 days
[2]; 1 mg/kg
  T/C: 161%
[2]; 1 mg/kg, 3 mice (2 without tumour)
  tumour mass in liver, per mouse sacrificed at D171 (microscopy): 검출된 종양 없음; also recorded: 간에 종양 (1.9cm)
[2]; 1 mg/kg/inj i.v. Q4Dx4
  mean survival time (as headed): 138 days
[2]; 5 mg/kg
  T/C: 137%
[2]; 5 mg/kg, 3 mice
  tumour mass in liver, per mouse sacrificed at D171 (microscopy): 검출된 종양 없음 검출된 종양 없음 검출된 종양 없음
[2]; 5 mg/kg/inj i.v. Q4Dx4
  mean survival time (as headed): 118 days
[2]; 0.1-5 mg/kg
  tolerance (body weight): 내약성이 우수함
Wistar rats [3]; 1 mg/kg, 7 weekly i.v. injections
  effect on PAN-induced glomerulosclerosis: 효과가 없었다
Wistar rats [3]; 4 mg/kg, 4 i.v. injections from day 21
  effect on PAN-induced glomerulosclerosis: 강한 효과를 초래하였다
Wistar rats [3]; 7 weekly i.v. injections, 2 and 4 mg/kg
  PAN-induced glomerulosclerosis: 용량 의존적으로 현저하게 감소시키는
Wistar rats [3]; especially 4 mg/kg groups
  decrease in plasma LDL: 현저하는 않더라도 관찰되었다
Wistar rats [3]; rat, in vivo
  effect on body weight vs PAN/saline: 관찰되지 않았다
[4]; 7 days after administration
  presence in choroid, bulbar conjunctiva, iris-ciliary body: 여전히 존재함
[4]; rabbit, in vivo
  detection in plasma: 항상 검출되지 않았다
Rat pancreatic islets; 1 h pre-treatment + 4 h hypoxia
  hypoxia-induced phosphorylation of JNK and JUN: 인산화를 억제하지 않았다
Rat pancreatic islets; normoxia and hypoxia
  islet apoptosis and necrosis: 감소되었다
[5]; [16]
  JNK activity (pJNK/JNK): 변화는 관찰되지 않았다
  decrease of apoptosis (cleaved PARP): 37%
[5]; 10 μM, 2 μM Aβ42
  decrease of caspase 3 activity: 71%
  decrease of cleaved PARP expression level: 55%
  decrease of cleaved caspase 3 expression level: 93%
[5]; [17]
  change of c-Jun expression vs stressed neurons without peptide: -65%
  change of c-Jun phosphorylation vs stressed neurons without peptide: -74%
Murine macrophages
  LPS-induced TNFa, IL-6, Rantes release: 사이토카인 방출을 억제한다
[6]; 24 h after CYP, p<0.01
  nociceptive threshold vs vehicle: 현저하게 증가하였다
[6]; p<0.001
  AUC 1-8 g (allodynia) vs vehicle: 현저하게 감소되었다
  AUC 8-60 g (hyperalgesia) vs vehicle: 현저하게 감소되었다
  nociceptive scores vs vehicle: 현저하게 감소시켰다
[7]; [18]
  decrease of PARP expression level vs treated WT neurons: 93%
  decrease of caspase 3 activity vs treated WT neurons: 87%
  decrease of cleaved caspase 3 vs treated WT neurons: 83%
[7]; peptide pre-treatment (XG-102 10 μM), 2 μM Aβ42
  change of JNK activation: -35%
[7]; peptide pre-treatment, 2 μM Aβ42
  c-Jun activation: 변화시키지 않았다
[8]
  intercontraction interval (ICI) and bladder capacity (BC) vs basal: 현저하게 증가시켰다
  threshold pressure (ThP) vs basal: 현저한 감소
TC-3 cells
  long-term protection against IL-1-induced cell death: 보호를 부여할 수 있었으나
Brown Norway rats [9]; 200 μg/eye
  decline of contrast threshold: 현저하게 지연되었다
Brown Norway rats [9]; 2, 20, 200 μg/eye every 2 weeks subconj.
  ocular irritation (chemosis, hyperemia, discharge): 안구 자극이 관찰되지 않았다
Brown Norway rats [9]; 20 or 200 μg/eye
  retinal cytokine levels (all 23): BLQ
Brown Norway rats [9]; 20 or 200 μg/eye, days 57-99
  progression of visual acuity loss (spatial frequency threshold): 현저하게 지연시켰다
Brown Norway rats [9]; all doses, day 99
  contrast threshold vs vehicle: 현저하게 높은 대조 역치 값을 가졌으며
Brown Norway rats [9]; all doses, day 113 (significant at 2 and 200 μg/eye)
  visual acuity score vs vehicle-treated STZ group: 높은 시력 점수를 보였고
Brown Norway rats [10]; 300 μg/ml IVT D0,D7, day 14
  mean score of fluorescein leakage (mean ± SD): 2.4 ± 0.9
Brown Norway rats [10]; 300 μg/ml IVT D0,D7, day 21
  mean score of fluorescein leakage (mean ± SD): 2.4 ± 0.8
Brown Norway rats [10]; 300 μg/ml, day 14
  % spots with score 0: 7%
  % spots with score 1: 9%
  % spots with score 2: 18%
  % spots with score 3: 66%
Brown Norway rats [10]; 300 μg/ml, day 14, p<0.05
  reduction % vs vehicle: 17%
Brown Norway rats [10]; 300 μg/ml, day 21
  % spots with score 0: 5%
  % spots with score 1: 9%
  % spots with score 2: 32%
  % spots with score 3: 55%
  reduction % vs vehicle: -9%
Brown Norway rats [10]; 3000 μg/ml IVT D0,D7, day 14
  mean score of fluorescein leakage (mean ± SD): 1.7 ± 0.7
Brown Norway rats [10]; 3000 μg/ml IVT D0,D7, day 21
  mean score of fluorescein leakage (mean ± SD): 2.3 ± 0.7
Brown Norway rats [10]; 3000 μg/ml, day 14
  % spots with score 0: 0%
  % spots with score 1: 44%
  % spots with score 2: 44%
  % spots with score 3: 12%
Brown Norway rats [10]; 3000 μg/ml, day 14, p<0.001
  reduction % vs vehicle: 41%
Brown Norway rats [10]; 3000 μg/ml, day 21
  % spots with score 0: 0%
  % spots with score 1: 14%
  % spots with score 2: 47%
  % spots with score 3: 40%
  reduction % vs vehicle: -5%
Brown Norway rats [10]; both doses IVT
  general behaviour of animals: 변화되지 않는다
[11]
  fold less efficient than L-TAT-IB1(s) in decreasing JNK-mediated c-Jun phosphorylation: 10-20 배
Wistar rats [12]
  serum creatinine vs untreated ischemic rats: 보다 낮은 혈청 크레아티닌을 보였다
Human islets
  hypoxia-induced islet apoptosis: 세포 자멸을 감소시키는
Human islets; normoxia and hypoxia
  islet necrosis: 괴사를 감소시키는
[13]; 0.1 mg/kg PO
  mice with more than 1 liver metastasis: 25%
[13]; 0.1 mg/kg/adm PO
  mean body weight change at D-2: 7.1±4.6%
[13]; 1 mg/kg PO
  number of mice without liver metastasis: 가장 높았으며
[13]; 1 mg/kg PO, vehicle 40%
  mice with more than 1 liver metastasis: 12.5%
[13]; 1 mg/kg SC
  mice with more than 1 liver metastasis: 25%
[13]; PO/SC 0.1 and 1 mg/kg Q1Dx14, vehicle 33%, group order not given
  mortality D0-D9 (surgical complications) in the four treated groups, as listed: 40% and 34% and 47%
[13]; Q1Dx14
  tolerance of treatment: 내약(tolerated)되었음
[14]; 1.5 μg/eye IVT, day 9
  b-wave recovery (% of baseline): 55.3%
[14]; 1.5 μg/eye IVT, day 16
  a-wave recovery (% of baseline): 47.5%
  b-wave recovery (% of baseline): 61.7%
[14]; 1.5 μg/eye IVT, day 23
  a-wave recovery (% of baseline): 48.3%
  b-wave recovery (% of baseline): 73.5%
[14]; 1.5 μg/eye ivt
  ONL thickness loss (% vs non-induced control eyes): 39%
[14]; 1.5 μg/eye ivt, day 23, p<0.05 vs vehicle
  ONL thickness: 24.89 ± 4.01 μm
[14]; 15 μg/eye IVT, day 9
  b-wave recovery (% of baseline): 60.6%
[14]; 15 μg/eye IVT, day 16
  a-wave recovery (% of baseline): 51.1%
  b-wave recovery (% of baseline): 62.3%
[14]; 15 μg/eye IVT, day 23
  a-wave recovery (% of baseline): 41.8%
  b-wave recovery (% of baseline): 56.5%
[14]; 15 μg/eye ivt
  ONL thickness loss (% vs non-induced control eyes): 40%
[14]; 15 μg/eye ivt, day 23, p<0.05 vs vehicle
  ONL thickness: 24.42 ± 5.99 μm
[14]; 150 μg/eye IVT, day 9 (vehicle 5.7)
  a-wave recovery (% of baseline): 23.6%
[14]; 150 μg/eye IVT, day 9 (vehicle 15)
  b-wave recovery (% of baseline): 31.9%
[14]; 150 μg/eye IVT, day 16 (vehicle 13.2)
  a-wave recovery (% of baseline): 24.1%
[14]; 150 μg/eye IVT, day 16 (vehicle 24.8)
  b-wave recovery (% of baseline): 38.9%
[14]; 150 μg/eye IVT, day 23 (vehicle 22.5)
  a-wave recovery (% of baseline): 23.7%
[14]; 150 μg/eye IVT, day 23 (vehicle 30.6)
  b-wave recovery (% of baseline): 37.1%
[14]; 150 μg/eye ivt
  ONL thickness loss (% vs non-induced control eyes): 53%
[14]; 150 μg/eye ivt, day 23
  ONL thickness: 18.95 ± 9.17 μm
[15]
  NOAEL: ~600 µg
hAPP Tg mice; 0.1 mg/kg every 2 wk or 10 mg/kg every 3 wk s.c., 4 months
  spatial learning in Morris Water Maze: 크게 영향을 받지 않았다
hAPP Tg mice; 0.1 mg/kg, p<0.05 vs vehicle
  brain Aβ1-42 level, Triton X-100 fraction: 현저한 감소를 나타내었다
hAPP Tg mice; 10 mg/kg vs vehicle
  cortical 6E10 IR plaque load: 비히클에 비해 증가하였으나
hAPP Tg mice; ELISA, 4 fractions
  brain homogenate Aβ1-40 levels: 영향을 미치지 않았다
hAPP Tg mice; p<0.01 at 10 mg/kg, <0.05 at 0.1 mg/kg
  CSF Aβ1-40 and Aβ1-42 levels: 현저하게 감소되었다
hAPP Tg mice; p<0.05 at 10 mg/kg, p<0.01 at 0.1 mg/kg
  number and area % of hippocampal ThioflavinS-positive plaques: 음성적인 투여량 의존적 감소를 유도함
